Test results taken from ChEMBL document CHEMBL1201862, “PubChem BioAssay data set” (2004).
Where “and” joins values, the source holds several entries; their conditions need not be identical. Equal entries are not always repeated.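 Results reflect a 48-hour exposure of cells in 96-well plates to compound at five concentrations. At the GI50, growth is halved.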 Calls of active or inactive are those of the source. No stated cut-off is given here; in the data, active = GI50 up to about 1.1 µM and inactive = higher.

Columns and labels:
Test in all cases: growth of human tumour cells (NCI), 48 h
HOP-18 = tested on: HOP-18
SR = tested on: SR
OVCAR-4 = tested on: OVCAR-4
K562 = tested on: K562
LXFL 529 = tested on: LXFL 529
U-251 = tested on: U-251
Malme-3M = tested on: Malme-3M
OVCAR-8 = tested on: OVCAR-8
NCI-H522 = tested on: NCI-H522
EKVX = tested on: EKVX
SK-MEL-28 = tested on: SK-MEL-28
SK-OV-3 = tested on: SK-OV-3
IGROV-1 = tested on: IGROV-1
SN12C = tested on: SN12C
SF-539 = tested on: SF-539
A549 = tested on: A549
HCC 2998 = tested on: HCC 2998
M14 = tested on: M14
SF-268 = tested on: SF-268
HOP-62 = tested on: HOP-62
UACC-257 = tested on: UACC-257
M19-MEL = tested on: M19-MEL
UO-31 = tested on: UO-31
DMS-114 = tested on: DMS-114
HL-60 = tested on: HL-60
OVCAR-3 = tested on: OVCAR-3
RPMI-8226 = tested on: RPMI-8226
HCT-116 = tested on: HCT-116
TK-10 = tested on: TK-10
HOP-92 = tested on: HOP-92
MOLT-4 = tested on: MOLT-4
OVCAR-5 = tested on: OVCAR-5
A498 = tested on: A498
KM12 = tested on: KM12
UACC-62 = tested on: UACC-62
CCRF-CEM = tested on: CCRF-CEM
SK-MEL-5 = tested on: SK-MEL-5
LOX IMVI = tested on: LOX IMVI
SNB-75 = tested on: SNB-75
SW-620 = tested on: SW-620
786-0 = tested on: 786-0
NCI-H226 = tested on: NCI-H226
SF-295 = tested on: SF-295
COLO 205 = tested on: COLO 205
KM-20L2 = tested on: KM-20L2
SNB-19 = tested on: SNB-19
ACHN = tested on: ACHN
DLD-1 = tested on: DLD-1
HT-29 = tested on: HT-29
NCI-H23 = tested on: NCI-H23
CAKI-1 = tested on: CAKI-1
SK-MEL-2 = tested on: SK-MEL-2
HCT-15 = tested on: HCT-15
SNB-78 = tested on: SNB-78
NCI-H460 = tested on: NCI-H460
MDA-N = tested on: MDA-N
BT-549 = tested on: BT-549
NCI/ADR-RES = tested on: NCI/ADR-RES
T47D = tested on: T47D
DU-145 = tested on: DU-145
MCF7 = tested on: MCF7
RXF 393 = tested on: RXF 393
MDA-MB-231 = tested on: MDA-MB-231
PC-3 = tested on: PC-3
Hs-578T = tested on: Hs-578T
MDA-MB-435 = tested on: MDA-MB-435
DMS-273 = tested on: DMS-273

Measured: GI50

O=S1(=O)c2cc(S(=O)(=O)n3ccnc3)ccc2NC2=NCCCN21
inactive: HOP-18 42.2 µM | SR 20.7 µM | OVCAR-4 47.4 µM | K562 17.7 µM | LXFL 529 31.5 µM | U-251 21.3 µM | Malme-3M 37.9 µM | OVCAR-8 27.2 µM | NCI-H522 14.2 µM | EKVX > 100 µM | SK-MEL-28 > 100 µM | SK-OV-3 20.3 µM | IGROV-1 40.7 µM | SN12C 33.3 µM | SF-539 19.6 µM | A549 34.2 µM | HCC 2998 23 µM | M14 26.7 µM | SF-268 41.2 µM | HOP-62 22 µM | UACC-257 > 100 µM | M19-MEL 35.3 µM | UO-31 31 µM | DMS-114 22.1 µM | HL-60 15.5 µM | OVCAR-3 20.3 µM | RPMI-8226 50 µM | HCT-116 29.7 µM | TK-10 61 µM | HOP-92 > 100 µM | MOLT-4 40.7 µM | OVCAR-5 48.1 µM | A498 28 µM | KM12 24.8 µM | UACC-62 48.5 µM | CCRF-CEM 21 µM | SK-MEL-5 20.2 µM | LOX IMVI 38.5 µM | SNB-75 26.7 µM | SW-620 26.2 µM | 786-0 32.2 µM | NCI-H226 19.8 µM | SF-295 29.4 µM | COLO 205 18.6 µM | KM-20L2 22.3 µM | SNB-19 78.5 µM | ACHN 34.3 µM | DLD-1 28.1 µM | HT-29 20.3 µM | NCI-H23 30.7 µM | CAKI-1 38.8 µM

COC1C(=[N+]=[N-])C(=O)NC(=O)N1C1OC(COC(c2ccccc2)(c2ccccc2)c2ccccc2)C(O)C1O (stereo not drawn)
18 µM: HCT-15
inactive: HOP-18 21.1 µM | OVCAR-4 14.2 µM | K562 19.7 µM | LXFL 529 17.6 µM | U-251 19.7 µM | Malme-3M 16.1 µM | OVCAR-8 19.2 µM | NCI-H522 16.2 µM | SK-MEL-2 19.1 µM | EKVX 19 µM | SK-MEL-28 16.4 µM | SK-OV-3 20.5 µM | IGROV-1 20.6 µM | SN12C 16.3 µM | SF-539 19.9 µM | A549 17.5 µM | HCC 2998 18.4 µM | M14 19 µM | SF-268 18.1 µM | HOP-62 22.7 µM | UACC-257 > 10 µM | M19-MEL 19.4 µM | UO-31 18.2 µM | HL-60 23.2 µM | OVCAR-3 18.7 µM | RPMI-8226 25.2 µM | HCT-116 18.2 µM | SNB-78 18 µM | MOLT-4 18.2 µM | OVCAR-5 17.8 µM | A498 20.1 µM | KM12 16.9 µM | UACC-62 15.1 µM | CCRF-CEM 16.5 µM | SK-MEL-5 16.2 µM | LOX IMVI 15.5 µM | SNB-75 15 µM | SW-620 18.5 µM | NCI-H226 17.5 µM | NCI-H460 25.4 µM | SF-295 18 µM | COLO 205 19.6 µM | KM-20L2 17.2 µM | SNB-19 19.7 µM | ACHN 18.1 µM | DLD-1 17.3 µM | HT-29 18.7 µM | NCI-H23 18.2 µM | CAKI-1 18.6 µM

COc1cc2c(cc1O)Cc1c-2[n+](C)cc2cc(OC)c(OC)cc12
inactive: OVCAR-4 > 63.2 µM | K562 1.93 µM | U-251 2.01 µM | Malme-3M > 86.5 µM | OVCAR-8 2.72 µM | SK-MEL-2 > 100 µM | EKVX > 90.8 µM | SK-MEL-28 > 89.9 µM | SK-OV-3 > 35.6 µM | MDA-N 34.9 µM | BT-549 8.11 µM | NCI/ADR-RES 6.79 µM | IGROV-1 52.7 µM | SN12C 4.8 µM | SF-539 1.82 µM | A549 38 µM | T47D 19.1 µM | HCC 2998 > 100 µM | M14 7.19 µM | DU-145 4.23 µM | HOP-62 6.61 µM | UACC-257 > 68.9 µM | UO-31 8.53 µM | HL-60 2.75 µM | OVCAR-3 29.7 µM | RPMI-8226 9.14 µM | HCT-116 15.3 µM | TK-10 > 88.1 µM | HOP-92 > 77.3 µM | MCF7 15.2 µM | OVCAR-5 > 100 µM | A498 > 64.1 µM | KM12 > 59.6 µM | UACC-62 7.43 µM | RXF 393 22.9 µM | SK-MEL-5 6.76 µM | LOX IMVI 5.94 µM | SNB-75 63.2 µM | SW-620 33.4 µM | MDA-MB-231 > 100 µM | 786-0 2.87 µM | NCI-H226 > 59 µM | NCI-H460 3.28 µM | SF-295 7.89 µM | COLO 205 > 74.3 µM | PC-3 28.8 µM | SNB-19 1.64 µM | ACHN 1.5 µM | Hs-578T 60 µM | HT-29 > 83 µM | NCI-H23 12.6 µM | MDA-MB-435 36 µM | CAKI-1 25.8 µM
active: SR 0.118 µM | NCI-H522 0.49 µM | SF-268 0.472 µM | MOLT-4 0.653 µM | CCRF-CEM 0.407 µM
24.4 µM: HCT-15

COc1ccc(C[C@H](N)C(=O)N2C[C@H](CO)C[C@H](n3cnc4c(N(C)C)ncnc43)C2)cc1
inactive: HOP-18 45.7 µM | DMS-273 > 100 µM | SR > 100 µM | OVCAR-4 > 100 µM | K562 > 100 µM | LXFL 529 > 100 µM | U-251 > 100 µM | Malme-3M > 100 µM | OVCAR-8 > 100 µM | NCI-H522 > 100 µM | SK-MEL-2 > 100 µM | EKVX > 100 µM | SK-MEL-28 > 100 µM | SK-OV-3 > 100 µM | IGROV-1 > 100 µM | SN12C > 100 µM | SF-539 > 100 µM | A549 > 100 µM | HCC 2998 > 100 µM | M14 > 100 µM | SF-268 > 100 µM | HOP-62 > 100 µM | M19-MEL > 100 µM | UO-31 > 100 µM | DMS-114 > 100 µM | HL-60 73.5 µM | OVCAR-3 > 100 µM | RPMI-8226 > 100 µM | HCT-116 > 100 µM | TK-10 > 100 µM | HOP-92 57 µM | MOLT-4 > 100 µM | OVCAR-5 > 100 µM | KM12 > 100 µM | UACC-62 > 100 µM | CCRF-CEM > 100 µM | RXF 393 > 100 µM | SK-MEL-5 > 100 µM | LOX IMVI > 100 µM | SW-620 > 100 µM | NCI-H226 > 100 µM | NCI-H460 > 100 µM | COLO 205 > 100 µM | KM-20L2 > 100 µM | SNB-19 > 100 µM | ACHN > 100 µM | DLD-1 > 100 µM | HT-29 > 100 µM | NCI-H23 > 100 µM | CAKI-1 > 100 µM
> 100 µM: HCT-15

CC(=O)OCC1OC(n2c(=S)n(-c3ccccc3)c(=O)c3cc(Br)cc(Br)c32)C(OC(C)=O)C(OC(C)=O)C1OC(C)=O (stereo not drawn)
inactive: DMS-273 > 100 µM and 64.9 µM | K562 65.3 µM | LXFL 529 72.1 µM and 45.2 µM | Malme-3M > 100 µM | OVCAR-8 > 100 µM and 92.9 µM | SK-MEL-2 > 100 µM | EKVX > 100 µM | SK-MEL-28 > 100 µM | SN12C > 100 µM and 81.8 µM | A549 90.8 µM and 58.6 µM | HCC 2998 > 100 µM | M19-MEL 65.6 µM | DMS-114 35.2 µM and 57.8 µM | HL-60 86.7 µM | HCT-116 65.2 µM | SNB-78 99.3 µM and 54.8 µM | OVCAR-5 > 100 µM | A498 > 100 µM and 61.7 µM | KM12 83 µM and 78.5 µM | UACC-62 59.2 µM and 54.3 µM | CCRF-CEM > 100 µM | SK-MEL-5 91.6 µM | LOX IMVI 60 µM | SNB-75 33.5 µM and 22.6 µM | SW-620 > 100 µM | NCI-H226 61.7 µM | NCI-H460 > 100 µM and 81.8 µM | COLO 205 > 100 µM | ACHN 51.8 µM and 87.3 µM | DLD-1 > 100 µM | HT-29 > 100 µM
83.4 µM: HCT-15
